Measurements from patent US9663476B2, “Glycine transporter-1 inhibitors” (AMGEN INC., priority 2006, dated 2017).
Counter-ions that a name gives are not always drawn.

Target: T1, human glycine transporter type 1 (Gly-T1) (Homo sapiens, UniProt P48067)
T1 construct: JAR) cells endogenously expressing human glycine transporter type 1 (Gly-T1); endogenous in cells; host or cells: JAR (human placental choriocarcinoma) cells
T1 sequence (P48067 1-706): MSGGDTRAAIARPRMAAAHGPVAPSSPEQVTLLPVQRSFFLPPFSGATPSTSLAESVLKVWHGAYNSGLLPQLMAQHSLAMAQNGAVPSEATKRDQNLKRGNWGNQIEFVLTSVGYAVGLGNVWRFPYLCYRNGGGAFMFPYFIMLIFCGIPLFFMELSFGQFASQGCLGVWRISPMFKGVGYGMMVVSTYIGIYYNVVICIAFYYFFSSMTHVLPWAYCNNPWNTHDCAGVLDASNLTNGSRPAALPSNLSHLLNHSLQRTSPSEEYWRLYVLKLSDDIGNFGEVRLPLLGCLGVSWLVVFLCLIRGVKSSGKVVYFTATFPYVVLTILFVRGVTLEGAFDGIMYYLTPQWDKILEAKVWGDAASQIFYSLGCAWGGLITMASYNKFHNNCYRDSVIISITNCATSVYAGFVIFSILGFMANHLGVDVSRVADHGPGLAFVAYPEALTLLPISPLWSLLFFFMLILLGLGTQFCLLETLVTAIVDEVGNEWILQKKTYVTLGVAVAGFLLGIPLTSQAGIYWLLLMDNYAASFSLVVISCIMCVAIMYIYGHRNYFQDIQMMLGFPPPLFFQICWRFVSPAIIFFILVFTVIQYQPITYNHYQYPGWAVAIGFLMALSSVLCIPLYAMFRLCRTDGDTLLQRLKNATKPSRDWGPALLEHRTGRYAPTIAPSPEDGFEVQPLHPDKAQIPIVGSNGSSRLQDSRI
Test: Glycine Transporter 1 (GlyT1) uptake assay, [14C] glycine uptake in JAR cells
Assay type: cell-based
Details: approximate IC50; inhibition of [14C] glycine (5 μM) uptake, JAR cells endogenously expressing human Gly-T1
Experimental: This cell-based assay measures the ability of test compounds to inhibit the uptake of glycine by the glycine transporter type 1. Human placental choriocarcinoma (JAR) cells endogenously expressing human glycine transporter type 1 (Gly-T1) were used for this assay. […] Cells were plated at a density of 4×10^4 cells/well and grown at 37° C. in a humidified atmosphere of 5% CO2 for 24 h.
Culture medium was removed from Cytostar plate and JAR cells were incubated with 30 μl of Uptake buffer (120 mM NaCl, 2 mM KCl, 1 mM CaCl2, 1 mM MgCl2, 10 mM Hepes, 5 mM alanine, pH 7.5) with or without compound for 5 min. […] After incubation at room temperature for the desired time usually 1-2 h, sealed 96-well Cytostar plates were counted on a TopCount (Packard).
IC50 curves were generated from the raw data collected from the TopCount and fitted with a four-parameter logistic equation using in-house data analysis tool, Activity Base.

| Structure (SMILES) | IC50 [nM] |
| --- | --- |
| C[C@@H]1CN([C@H](c2ccccc2)c2cccc(Br)c2)CCN1CC(=O)O [Cpd 20, 2-((R)-4-((R)-(3-bromophenyl)(phenyl)methyl)-2-methylpiperazin-1-yl)acetic acid dihydrochloride salt] | 1.51 |
| C[C@@H]1CN([C@H](c2ccccc2)c2cccc(C(F)(F)F)c2)CCN1CC(=O)O [Cpd 24, 2-((R)-2-methyl-4-((R)-phenyl(3-(trifluoromethyl)phenyl)methyl)piperazin-1-yl)acetic acid dihydrochloride salt] | 3.94 |
| C[C@@H]1CN([C@H](c2ccccc2)c2cccc(-c3ccccc3)c2)CCN1CC(=O)O [Cpd 30, [(R)-4-((R)-biphenyl-3-yl-phenyl-methyl)-2-methyl-piperazin-1-yl]-acetic acid] | 0.934 |
| Cc1cccc(-c2ccc([C@@H](c3ccccc3)N3CCN(CC(=O)O)[C@H](C)C3)cc2)c1 [Cpd 48, [(R)-2-methyl-4-[(R)-(3′-methyl-biphenyl-4-yl)-phenyl-methyl]-piperazin-1-yl]-acetic acid] | 2.14 |
| Cc1ccc(-c2ccc([C@@H](c3ccccc3)N3CCN(CC(=O)O)[C@H](C)C3)cc2)cc1 [Cpd 49, [(R)-2-methyl-4-[(R)-(4′-methyl-biphenyl-4-yl)-phenyl-methyl]-piperazin-1-yl]-acetic acid] | 7.2 |
| C[C@@H]1CN(C(c2cccc(C(F)(F)F)c2)C2CC2)CCN1CC(=O)O (stereo partly drawn) [Cpd 77, 2-((R)-4-(cyclopropyl(3-(trifluoromethyl)phenyl)methyl)-2-methylpiperazin-1-yl)acetic acid dihydrochloride salt] | 41.1 |

The remaining compounds from weak to strong by IC50, led by results:

| IC50 [nM] | Structure (SMILES) |
| --- | --- |
| 2200 | C[C@@H]1CN(C(c2ccc(Cl)cc2)c2ccc(Cl)cc2)CCN1[C@H](C)C(=O)O [Cpd 82, (R)-2-((R)-4-(bis(4-chlorophenyl)methyl)-2-methylpiperazin-1-yl)propanoic acid] |
| 79.1 | O=C(O)CN1CCN([C@H](c2ccccc2)c2cccc(C(F)(F)F)c2)CC1 [Cpd 1, (R)-2-(4-(phenyl(3-(trifluoromethyl)phenyl)methyl)piperazin-1-yl)acetic acid] |
| 17.8 | Cc1cccc([C@@H](c2ccccc2)N2CCN(CC(=O)O)[C@H](C)C2)c1 [Cpd 34, 2-((R)-2-methyl-4-((R)-phenyl(m-tolyl)methyl)piperazin-1-yl)acetic acid] |
| 4.8 | C[C@@H]1CN(C(c2ccc(Cl)cc2)c2ccc(Cl)cc2)CCN1CC(=O)O [Cpd 78, (R)-2-(4-(bis(4-chlorophenyl)methyl)-2-methylpiperazin-1-yl)acetic acid] |
| 1.5 | C[C@@H]1CN([C@H](c2ccccc2)c2ccc(C#Cc3ccccc3)cc2)CCN1CC(=O)O [Cpd 55A, 2-((R)-2-methyl-4-((R)-phenyl(4-(2-phenylethynyl)phenyl)methyl)piperazin-1-yl)acetic acid] |
